Test results taken from ChEMBL document CHEMBL5576113, “A method for estimation of plasma protein binding using diffusion ordered NMR spectroscopy (DOSY)” (RSC Med Chem, 2024).

Legend:
Albumin [1] = molecular target: T1, Albumin (Bos taurus, UniProt P02769); test: Plasma protein binding in bovine serum albumin assessed as fraction bound at 5:1 ratio of compound and BSA by 1H DOSY NMR spectrophotometric analysis; assay type: ADME; conditions: cattle, read-out: PPB (converted)
Albumin [2] = molecular target: T1, Albumin; test: Plasma protein binding in bovine serum albumin assessed as fraction bound at 20:1 ratio of compound and BSA by 1H DOSY NMR spectrophotometric analysis; assay type: ADME; conditions: cattle, read-out: PPB (converted)
Albumin [3] = molecular target: T1, Albumin; test: Plasma protein binding in bovine serum albumin assessed as fraction bound at 10:1 ratio of compound and BSA by 1H DOSY NMR spectrophotometric analysis; assay type: ADME; conditions: cattle, read-out: PPB (converted)
Albumin [4] = molecular target: Albumin (Homo sapiens, UniProt P02768); test: Plasma protein binding in human albumin at 1 to 20 ug/ml incubated for 30 mins; assay type: ADME; conditions: at 1 to 20 µg/mL, dose 1-20 µg/ml, read-out: PPB (converted)
[5] = Plasma protein binding in human plasma incubated for 18 hrs by equilibrium dialysis

T1 sequence (P02769 whole entry): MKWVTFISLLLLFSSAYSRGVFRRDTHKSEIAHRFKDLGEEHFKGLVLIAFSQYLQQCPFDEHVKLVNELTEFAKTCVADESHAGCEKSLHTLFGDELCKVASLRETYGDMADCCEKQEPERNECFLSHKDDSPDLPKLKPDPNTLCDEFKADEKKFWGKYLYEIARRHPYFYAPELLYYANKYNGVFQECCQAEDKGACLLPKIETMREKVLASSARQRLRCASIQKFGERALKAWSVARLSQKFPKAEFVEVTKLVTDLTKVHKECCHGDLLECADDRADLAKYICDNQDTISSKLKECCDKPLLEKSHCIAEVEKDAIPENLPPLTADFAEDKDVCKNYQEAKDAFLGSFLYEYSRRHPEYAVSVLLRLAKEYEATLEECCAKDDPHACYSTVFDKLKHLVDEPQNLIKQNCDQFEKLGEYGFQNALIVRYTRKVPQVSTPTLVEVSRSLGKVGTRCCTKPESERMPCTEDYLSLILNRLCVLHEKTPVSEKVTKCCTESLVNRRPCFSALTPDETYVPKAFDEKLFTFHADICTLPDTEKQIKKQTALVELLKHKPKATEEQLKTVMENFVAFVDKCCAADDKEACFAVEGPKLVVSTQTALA
Albumin (Homo sapiens, UniProt P02768), sequence (P02768 whole entry): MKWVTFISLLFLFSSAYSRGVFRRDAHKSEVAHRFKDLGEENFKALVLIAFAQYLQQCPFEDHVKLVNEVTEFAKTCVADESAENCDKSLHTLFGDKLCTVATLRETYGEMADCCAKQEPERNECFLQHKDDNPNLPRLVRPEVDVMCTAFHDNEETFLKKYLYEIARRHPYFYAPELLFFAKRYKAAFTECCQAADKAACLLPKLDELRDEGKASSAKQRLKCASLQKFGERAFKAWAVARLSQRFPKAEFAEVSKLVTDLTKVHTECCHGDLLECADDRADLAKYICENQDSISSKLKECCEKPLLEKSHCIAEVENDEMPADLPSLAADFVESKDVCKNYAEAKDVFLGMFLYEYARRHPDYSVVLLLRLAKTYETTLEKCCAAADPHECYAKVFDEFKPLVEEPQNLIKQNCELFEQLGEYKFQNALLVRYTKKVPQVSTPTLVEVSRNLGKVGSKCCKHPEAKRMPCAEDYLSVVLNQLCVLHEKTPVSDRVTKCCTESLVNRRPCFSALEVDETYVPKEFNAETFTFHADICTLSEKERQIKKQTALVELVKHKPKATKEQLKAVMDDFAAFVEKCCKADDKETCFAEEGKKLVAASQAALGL

SMILES	fraction unbound (Albumin [1])	fraction unbound (Albumin [2])	fraction unbound (Albumin [3])	fraction unbound at 0.5 h (Albumin [4])	fraction unbound at 18 h [5]
OC[C@H]1OC(O)[C@H](O)[C@@H]1O (some centres not stated)	0.11	0.36	0.25		
CC(=O)Oc1ccccc1C(=O)O [ASPIRIN]	0.1	0.48	0.16		
CN/C(=N/CCSCc1nc[nH]c1C)NC#N [CIMETIDINE]	0.42	0.74	0.66		
CC(C)NCC(O)COc1cccc2ccccc12 (configuration not stated) [PROPRANOLOL]	0.21	0.49	0.41		0.14

Further lines, with some results ahead:

fraction unbound (Albumin [1])	fraction unbound (Albumin [2])	fraction unbound (Albumin [3])	fraction unbound at 0.5 h (Albumin [4])	SMILES	fraction unbound at 18 h [5]
0.27	0.71	0.67	0.625	Cn1c(=O)c2c(ncn2C)n(C)c1=O [CAFFEINE]	
	0.04	0.02		COc1ccc2nc([S@@+]([O-])Cc3ncc(C)c(OC)c3C)[nH]c2c1 [ESOMEPRAZOLE]	
0.26	0.71	0.46		N[C@H]1C(O)O[C@H](CO)[C@@H](O)[C@@H]1O (some centres not stated) [GLUCOSAMINE]	
